# Reference: PubChem BioAssay AID2305 (GlaxoSmithKline (GSK), 2010)
# System: P. falciparum 3D7 growth, pLDH absorbance
# Assay: P. falciparum 3D7 growth inhibition, dose response, strain 3D7 (AID 2305)
row,SMILES,IC50
1,COc1ccc2c(ccc3c2ncc2c(=O)n(-c4ccccc4)[nH]c23)c1,520 nM
2,Cc1noc(C)c1S(=O)(=O)N(C)Cc1ccc(-c2ccc(Cl)cc2)o1,360 nM
3,O=C(Nc1ccc(Cl)cc1)c1cccc(S(=O)(=O)NC2CCN(CC3CCCCC3)CC2)c1,720 nM
4,Cc1c(S(=O)(=O)Nc2ccc3ccn(CCN(C)C)c3c2)sc2ccc(Cl)cc12,920 nM
5,O=C(NCc1ccccc1)c1ncn(CCCN2CCC(N3CCCC3)CC2)c1-c1ccc(Cl)c(Cl)c1,1120 nM
6,COc1ccc(-c2ccc(NC(=O)c3ccc(C#N)cc3)cc2)cc1CN(C)CCN(C)C,660 nM
7,Oc1ccc(CN2CCN(CCOC(c3ccc(F)cc3)c3ccc(F)cc3)CC2)cc1Cl,940 nM
8,O=C(Nc1cccc(CN2CCCN(Cc3ccc(O)cc3)CC2)c1)c1cc2ccccc2s1,360 nM
9,COc1ccccc1NC(=O)OC(COc1ccc(N)cc1)CN1CC=C(c2ccccc2)CC1 (stereo not given),1040 nM
10,CC(C)CN(C)Cc1ccc(-c2ccc(-c3nc4ccccc4[nH]3)s2)cc1,750 nM
11,CC(C)CN1CCCN(Cc2cccc(NC(=O)c3ccc(-c4ccccc4)cc3)c2)CC1,880 nM
12,CC(=O)Nc1ccc(CN2CCC(N(C)c3ccc(NC(=O)c4cccc(C)c4)cc3)CC2)cc1,990 nM
13,O=C(c1ccc(F)cc1)N1CCOC(CCN2CCC(c3ccccc3)CC2)(c2ccc(Cl)c(Cl)c2)C1 (stereo not given),750 nM
14,COc1ccc(CCNCCCCCCNCCc2cccc([N+](=O)[O-])c2)cc1OC,1000 nM
15,c1cncc(Oc2ccc(Nc3ccnc4cc(-c5cccc(CNCCN6CCOCC6)c5)ccc34)cc2)c1,110 nM
16,CN(C)CCCn1cncc1-c1ccc2ncnc(Nc3ccc4c(cnn4Cc4ccccc4)c3)c2c1,730 nM
17,CC1(C)N=C(N)N=C(N)N1OCc1cc(Cl)c(Cl)cc1CON1C(N)=NC(N)=NC1(C)C,10 nM
18,CCCNc1nc(NCc2c(C)cccc2C)nc(NC(C)(C)C)n1,860 nM
19,O=C(C=Cc1ccc(Cl)c(Cl)c1)NCCCCCN1CCC(CCNC(=O)c2ccc3c(c2)OCO3)CC1,690 nM
20,O=C(Nc1cccc(Cl)c1N1CCOCC1)C(Cl)(Cl)Cl,980 nM
21,CN(Cc1cccc(O)c1)C1CCN(c2cc(NC(=O)c3ccc(F)cc3)ccn2)C1 (stereo not given),1150 nM
22,COc1ccc(C2=C(Nc3ccc4oc5ccccc5c4c3)c3ccccc3C2=O)cc1,830 nM
23,CN(C)CCC1CCN(CCS(=O)(=O)c2cccc(Nc3ccc(-c4ccsc4)cn3)c2)CC1,940 nM
24,O=C(Nc1ccc(OC2CCN(Cc3ccc(F)cc3)C2)c(Cl)c1)c1ccoc1 (stereo not given),940 nM

row,SMILES,IC50
1,Cc1cc(NC(=O)Nc2cccc(C#N)c2)c2ccccc2n1,580 nM
2,Cc1cc(NC(=O)c2ccco2)ccc1OC1CCN(Cc2ccc(F)cc2)C1 (stereo not given),640 nM
3,CCn1cc(C=C2Oc3c(ccc(O)c3CN3CCCCC3C)C2=O)c2ccccc21 (stereo not given),1020 nM
4,CCCCCCNC(=O)C1Cc2c([nH]c3ccc(C)cc23)C2(CCN(Cc3ccccc3)CC2)N1 (stereo not given),980 nM
5,CC(C)CCNC(=O)[C@@H]1[C@H]2C(=O)N(C3CCCCC3)C(=O)[C@H]2[C@H]2C=C[C@@H]3C(c4ccc(C(C)(C)C)cc4)=NO[C@@H]3N21,790 nM
6,O=c1[nH]nc(-c2ccc(N3CCCC3)c([N+](=O)[O-])c2)c2ccccc12,630 nM
7,Cc1c(C)c2c(c(C)c1O)CC[C@@](C)(C(=O)N1CCC(CN3CCC(c4c[nH]c5ccccc45)CC3)CC1)O2,660 nM
8,O=C(/C=C/c1ccc(Cl)c(Cl)c1)NCCCCCN1CCC(NC(=O)Nc2ccc(Oc3ccccc3)cc2)C1 (stereo not given),590 nM
9,Cc1cccn2c(=O)c3cc(C(=O)NC(C)c4ccccc4)c(=N)n(CCc4ccccc4)c3nc12 (stereo not given),550 nM
10,CC(=O)N[C@@H]1c2cc(C(C)=O)ccc2OC(C)(C)[C@@H]1O,980 nM
11,c1ccc2c(NCCCCCCNc3c4ccccc4nc4ccccc34)c3ccccc3nc2c1,750 nM
12,Nc1ccc(-c2cc(Cl)cc(Cl)c2)cc1-c1cc2ccccc2[nH]1,690 nM
13,CCCCNCc1ccc(-c2nc(CN(C(=O)Nc3cc([N+](=O)[O-])ccc3F)C3Cc4ccccc4C3)cs2)cc1,1100 nM
14,CC(C)COc1ccc(Cl)cc1Cc1ccc(-c2nc3ccc(C(F)(F)F)cc3[nH]2)o1,850 nM
15,Cc1cc(NN=Cc2ccccc2Cl)c2ccccc2n1,900 nM
16,Cc1ncc([N+](=O)[O-])n1CCOC(=O)NC(NCC1COc2ccccc2O1)C(Cl)(Cl)Cl (stereo not given),220 nM
17,COc1ccc(Nc2ncc(C#N)c(Nc3ccccc3C(N)=O)n2)cc1N1CCN(C)CC1,140 nM
18,Cc1cccc2[nH]cc(C3CCN(CCC4CCN(C(=O)/C=C/c5ccc(Cl)c(Cl)c5)CC4)CC3)c12,1220 nM
19,COc1ccccc1C1CCN(CCN2CCC(NC(=O)c3ccc(-c4ccc(C#N)cc4)cc3)CC2)CC1,790 nM
20,O=C(Nc1cccc(CN2CCCN(Cc3ccc(F)cc3)CC2)c1)c1ccc(Cl)c(Cl)c1,960 nM
21,OC(CNCc1ccccc1OCc1ccccc1)c1cc(C(F)(F)F)cc(C(F)(F)F)c1 (stereo not given),130 nM
22,COc1ccc(NC(=O)Nc2cccc(-c3cccc(-c4nc5c(C)cccc5[nH]4)c3)c2)cc1,400 nM
23,COc1ccccc1C1CC(c2ccc(C)cc2)=NN1C(=O)c1ccccc1 (stereo not given),890 nM
24,O=C(Nc1ccc(-c2nc3ccccc3[nH]2)cc1)c1ccc(S(=O)(=O)N2CCc3ccccc32)cc1,740 nM

row,SMILES,IC50
1,CCc1ccc(-n2c(NC(=O)c3ccccc3)nc3ccc(S(=O)(=O)NC(C)C(C)C)cc32)cc1 (stereo not given),930 nM
2,Cc1cc(C(=O)N[C@H]2CCN(Cc3ccc(OCCCN(C)C)cc3)C2)ccc1Br,900 nM
3,CCN(CC)CCNc1ccnc2c3ccccc3n(C)c12,240 nM
4,CNCCNCc1ccc(-c2ccc(-c3nc4c(C)cccc4[nH]3)cc2)cc1,670 nM
5,N#Cc1ccc(-c2ccc(OCC(O)CN3CCCN(C(=O)C(c4ccc5c(c4)OCO5)N4CCN(C/C=C/c5ccccc5)CC4)CC3)cc2)cc1 (stereo not given),650 nM
6,COCn1ccc2c3c(N)nc(N)nc3ccc21,990 nM
7,O=C(Nc1cc(C(F)(F)F)cc(C(F)(F)F)c1)Nc1ccc(Cl)c(Cl)c1,240 nM
8,O=C(NCCCCCN1CCC(c2c[nH]c3ccccc23)C1)Nc1ccc(Cl)c(Cl)c1 (stereo not given),810 nM
9,Cc1cccc(C(=O)Nc2ccc(N3CCCN(Cc4cccc(O)c4)CC3)cc2)c1,1420 nM
10,CCC(C)c1ccc(NC(=O)Nc2ccc(Cn3ncc(N4CCCNCC4)c(Cl)c3=O)cc2)cc1 (stereo not given),1030 nM
11,CCCCCCCN1CC[C@@H](CCCc2ccnc3ccc(OCCC4CCNCC4)cc23)[C@@H](CC)C1,610 nM
12,CN(Cc1ccccc1)C1CCCN(c2cc(NC(=O)c3ccc(F)cc3)ccn2)C1 (stereo not given),990 nM
13,CNCCCn1c(N(C)C)nc2cc(-n3cnc4cc(-c5ccc(Cl)cc5)sc4c3=O)ccc21,1140 nM
14,COc1ccc(O)cc1Cc1cnc2nc(N)nc(N)c2c1C,10 nM
15,CCN(CC)c1ccc(C(c2ccc(N(CC)CC)cc2)c2ccc([N+](=O)[O-])cc2)cc1,950 nM
16,Cn1c(-c2ccccc2)cc2c3c(=O)cc(C(F)(F)F)[nH]c3ccc21,850 nM
17,CC(C)(CNC(=O)[C@@H]1CCCN(CCOc2ccc(F)c(F)c2)C1)c1nc(-c2ccc(Cl)c(O)c2)c(-c2ccncc2)[nH]1,720 nM
18,CCCCn1c(Sc2ccc(C#N)c([N+](=O)[O-])c2)nnc1-c1cc(OC)cc(OC)c1,820 nM
19,COc1ccc2nccc([C@@H](O)CN3CCC(NC(=O)c4ccc(Cl)c([N+](=O)[O-])c4)CC3)c2c1,950 nM
20,CN1CCC(N2CCN(Cc3ccc(-c4cccc(-c5nc6ccccc6[nH]5)c4)cc3)CC2)CC1,140 nM
21,CSc1ccc2ccccc2c1CNCCCCCCNCc1c(SC)ccc2ccccc12,800 nM
22,Cc1cc(N)nc2cc(CNCCc3ccccc3Br)ccc12,130 nM
23,Fc1cccc(COc2ccc(Nc3ncnc4sc(C#CCNC5CCC5)cc34)cc2Cl)c1,870 nM
24,CC(Cc1ccc(C(=O)Nc2ccc(CC(C)NCCc3cccc(Cl)c3)cc2)cc1)NCCc1ccc(C(F)(F)F)cc1 (stereo not given),570 nM

row,SMILES,IC50
1,CC(C)COc1ccc(Cl)cc1Cc1ccc(-c2nc3c(F)cccc3[nH]2)o1,810 nM
2,Cc1ccc(-n2cc(CNCCc3ncc(C)[nH]3)c(-c3ccc(F)cc3)n2)cc1,1510 nM
3,O=C(C=Cc1ccc(Cl)c(Cl)c1)NCCCCCN1CCCC(CCCNS(=O)(=O)c2cccc(C(F)(F)F)c2)C1 (stereo not given),960 nM
4,CC1CCCC(NCc2c(O)ccc3ccccc23)C1 (stereo not given),930 nM
5,CN(CCC(CCN1CCC(c2c[nH]c3ccccc23)CC1)c1ccccc1)C(=O)Nc1ccc(Cl)c(Cl)c1 (stereo not given),1190 nM
6,CN=C(N)c1ccc(NC(=O)c2ccc(C(=O)Nc3ccc(C(N)=NC)cc3)cc2)cc1,50 nM
7,O=C(N[C@@H](Cc1ccccc1)C(=O)NC1CCCCCC1)c1ccc(O)c(-c2cccc(C(F)(F)F)c2)c1,730 nM
8,Oc1ccc(-c2cc(-c3ccc(O)cc3)nc(-c3ccccc3)n2)cc1,780 nM
9,CN1CCN(CCCN(Cc2csc(-c3ccc(CNCc4ccccc4)cc3)n2)C(=O)Nc2cccc(Cl)c2)CC1,790 nM
10,O=C(Nc1cccc(-c2cccc(-c3nc4ccc(C(F)(F)F)cc4[nH]3)c2)c1)c1ccncc1,200 nM
11,CCOC(=O)c1ccc(NC(=O)N(Cc2ccc(-c3ccc(CN4CCNCC4)cc3)cc2)Cc2cccnc2)cc1,930 nM
12,COc1ccccc1Nc1nc(NC2CCN(C)CC2)cc(-c2cccc(C(F)(F)F)c2)n1,920 nM
13,CCS(=O)(=O)c1ccc(-c2cnc3[nH]cc(-c4ccc(N)cc4)c3c2)cc1,850 nM
14,COc1ccc(C(=O)CCc2ccc(O)cc2)cc1,480 nM
15,COc1ccc(-c2cnc3ccc(NCc4ccc(S(N)(=O)=O)cc4)nn23)cn1,870 nM
16,N=c1n(CCN2CCCCC2)c2ccccc2n1CC(=O)c1cccc([N+](=O)[O-])c1,880 nM
17,CCC[C@@H]([C@@H](CC1CCCCC1)C(=O)NC(C(=O)Nc1nccs1)C(CC)c1ccccc1)N(O)C=O (stereo not given in full),690 nM
18,CN(Cc1ccc(-c2ccc(C(F)(F)F)cc2)cc1)C(=O)Cn1c(CCc2cccc(F)c2F)cc(=O)c2ccc(OCCCN3CCCCC3)cc21,710 nM
19,Cc1cccc2[nH]c(-c3ccc(-c4cccc(NC(=O)Nc5ccc6c(c5)OCO6)c4)cc3)nc12,740 nM
20,CCNc1cc(CC)nc(Nc2ccc(C)cc2)n1,850 nM
21,COc1cc(NC(=O)c2sc(-c3ccc(Cl)cc3)cc2NC(=O)CN2CCCC2)ccc1OCCN1CCCC1,930 nM
22,O=c1[nH]ccc2nc(N[C@@H]3CCNC3)nc(Nc3cccc(S(=O)(=O)N4CCOCC4)c3)c12,1230 nM
23,CN1CCCN(Cc2ccc(-c3cccc(NC(=O)c4ccc(F)cc4)c3)cc2)CC1,1090 nM
